This note sets out measurements from US8222448B2, “Processes for production of 2-bromo-2,2-difluoroethanol and 2-(alkylcarbonyloxy)-1, 1-difluoroethanesulfonic acid salt” (priority 2007, dated 2012).

The data set is described as follows: Solubility in propylene glycol methyl ether acetate. It counts as physicochemical. Particulars: 1.0 g added to 100 g of propylene glycol methyl ether acetate, stirring. The source says: 1.0 g of sodium 2-(1′-adamantane)carbonyloxy-1,1-difluoroethanesulfonate synthesized in Example 8 was weighed and added to 100 g of propylene glycol methyl ether acetate, followed by stirring.

Consider `O=C(OCC(F)(F)S(=O)(=O)[O-])C12CC3CC(CC(C3)C1)C2.c1ccc([S+](c2ccccc2)c2ccccc2)cc1` [Example 8, triphenylsulfonium 2-(1′-adamantane)carbonyloxy-1,1-difluoroethanesulfonate], for which the Solubility entry was “completely dissolved”.
